Values after ≈ are worked out from the molar mass of the structure shown. Bounds are passed on as bounds.

This passage reports MIC50 and MCC results from ChEMBL document CHEMBL1144367, “QSAR for anti-RNA-virus activity, synthesis, and assay of anti-RSV carbonucleosides given a unified representation of spectral moments, quadratic, and topologic indices” (2005).

Type in all cases: functional
Holding throughout (settings): Homo sapiens

The test system of assay [1] is HeLa. In words: Minimum inhibitory concentration against coxsackie virus B4 was determined.
The subject of assay [2] is HeLa. In words: Minimum cytotoxicity concentration to HeLa cell line was determined.
Assay [3] concerns HeLa. Briefly: Minimum inhibitory concentration against vesicular stomatitis virus was determined.
Assay [4] concerns HeLa. Briefly: Minimum inhibitory concentration against respiratory syncytial virus was determined.

`NC(=O)c1ncn([C@@H]2O[C@H](CO)[C@@H](O)[C@H]2O)n1` [RIBAVIRIN]: the MIC50 in the assay with HeLa [1] was 48 µg/mL (≈ 197 µM); against HeLa [3], 16 µg/mL (≈ 65.5 µM); against HeLa [4], 1.92 µg/mL (≈ 7.86 µM). In the assay on HeLa [2], this compound came in with an MCC greater than 400 µg/mL.

Take `OC[C@@H]1CCCC[C@@H]1N1C=NC2C(Cl)=NC=NC21` (some centres undefined): the MIC50 in the assay with HeLa [1] and with HeLa [4] was greater than 80 µg/mL throughout. In addition, in the assay on HeLa [2], the MCC was 400 µg/mL.

Regarding `NC1=NC=NC2C1N=CN2[C@H]1CCCC[C@H]1CO` (some centres undefined), the MIC50 against HeLa [1] was greater than 80 µg/mL; against HeLa [4] it was 3.2 µg/mL (≈ 12.8 µM). The MCC with HeLa [2] came out at 400 µg/mL.

For `NC1=NC2C(N=CN2[C@H]2CCCC[C@H]2CO)C(Cl)=N1` (some centres undefined), the values for the MIC50 in the assay with HeLa [1], against HeLa [3] and against HeLa [4] were 120 µg/mL (≈ 423 µM), greater than 200 µg/mL and 8 µg/mL (≈ 28.2 µM), respectively. In the assay on HeLa [2], the MCC was greater than 200 µg/mL.
